# Measured values from patent US12728125B2, “Methods for treating neutropenia” (X4 Pharmaceuticals, Inc., priority 2020, dated 2026).
# Marks after values point to notes of the source that are not given here.
# B1: filgrastim (protein, chains of the INN, looked up)
# chain: MTPLGPASSLPQSFLLKCLEQVRKIQGDGAALQEKLCATYKLCHPEELVLLGHSLGIPWAPLSSCPSQALQLAGCLSQLHSGLFLYQGLLQALEGISPELGPTLDTLQLDVADFATTIWQQMEELGMAPALQPTQGAMPAFASAFQRRAGGVLVASHLQSFLEVSYRVLRHLAQP
# modifications: N-terminal methionine, recombinant
# notes: granulocyte colony-stimulating factor, standard of care for severe chronic neutropenia
# B2: pegfilgrastim (protein, chains of the INN, looked up)
# chain: TPLGPASSLPQSFLLKCLEQVRKIQGDGAALQEKLCATYKLCHPEELVLLGHSLGIPWAPLSSCPSQALQLAGCLSQLHSGLFLYQGLLQALEGISPELGPTLDTLQLDVADFATTIWQQMEELGMAPALQPTQGAMPAFASAFQRRAGGVLVASHLQSFLEVSYRVLRHLAQP
# modifications: PEG conjugate, N-terminal methionine
# notes: pegylated G-CSF
# Columns and labels:
# [1] = system: circulating CFU-GM, BFU-E, CFU-GEMM progenitor cells and nucleated cells; test: Progenitor/stem cell mobilization in mice after single subcutaneous injection; assay type: in vivo, C3H/HeJ mice
# Experimental: A further study was conducted to determine whether X4P-001 mobilizes progenitor/stem cells in mice. All experiments were performed in […] mice. X4P-001 and AMD3 100/plerixafor were administered via single subcutaneous injection at the doses described below. The mobilization capacity of X4P-001 was assessed by the numbers of granulocyte-macrophage (CFU-GM), erythroid (BFU-E) and multipotential (CFU-GEMM) progenitor cells per mL of blood. The progenitors were stimulated to form colonies in vitro with the combination of 1 U/mL rhu EPO, 50 ng/mL rmu SLF, 5% vol/vol pokeweed mitogen mouse spleen cell conditioned medium (PWMSCM), and 0.1 mM hemin. Plates were scored 7 days after incubation at 37° C., […] and in a humidified chamber.
# In the first experiment (data shown in Table 7), mice received a dose of 5 mg/kg- and the number of progenitors in the circulating blood was measured at various time points (0.25, 0.5, 1, 2, 6 and 24 hours).
# An X4P-001 dose-response was performed by measurement of the number of circulating progenitors in the blood at 1 hour post-injection at various doses (1.5, 2.5, 5, 10 and 20 mg/kg).
# A final experiment was performed to compare the progenitor cell mobilization capacity of X4P-001 and AMD3100/plerixafor.
# [2] = system: WBC, neutrophil and lymphocyte counts; test: Hematologic effects of a single oral dose in the male Beagle dog; assay type: in vivo
# Experimental: Three fasted male Beagle dogs received a single dose of X4P-001 in aqueous solution by oral gavage at dose levels of 5, 15, and 35 mg/kg (1 dog per dose level) in a volume of 1 mL/kg. Blood samples (approximately 3 mL each) were obtained at multiple timepoints from each animal by direct venipuncture of the jugular vein and collected using Vacutainer® tubes containing K3EDTA as the anticoagulant. Blood samples were obtained at pre-dose, and 0.25, 0.5, 0.75, 1, 1.5, 2, 3, 4, 7, 12, and 24 hours post-dose. Blood samples were stored at ambient room temperature prior to automated differential analysis.
# Body weights were determined prior to dosing on the day of test article administration.
# Hematology parameters included the following: • White Blood Cell Count (WBC) • Differential white blood cell count (absolute and relative) • Neutrophil • Lymphocytes • Monocytes • Eosinophils • Basophils • Large Unstained Cells (LUC) • Hematocrit (HCT) • Hemoglobin (HGB) • Mean Corpuscular Hemoglobin (MCH) • Mean Corpuscular Hemoglobin Concentration (MCHC) • Mean Corpuscular Volume (MCV) • Platelet Count (PLT). • Red Blood Cell Count (RBC) Results
# [3] = system: hematology and coagulation; test: 28-day GLP oral (capsule) toxicity study in the Beagle dog with 14-day recovery; assay type: in vivo
# Experimental: A 28-Day GLP oral (capsule) toxicology study was conducted with […]-001 in the male and female beagle dog, and hematology effects were observed, with […]-001 administered twice-daily (at least 7 hours apart) by oral capsule for 28 days. A subset of treated animals was evaluated after a 14-day recovery period. [table] [table]
# [4] = human, in vivo
# Experimental: In some embodiments, the dose is selected to provide consistent clinically relevant elevations of both ANC and ALC, with low risk of significant adverse effects. Dosage of 400 mg per day BID for 3.5 days (healthy volunteers) (Stone 2007) and 200 mg BID for 8-10 days (healthy volunteers and HIV patients) were well-tolerated with no pattern of adverse events or clinically significant laboratory changes.
# [5] = in vivo
# Experimental: In certain embodiments, the dosage composition may be provided twice a day in divided dosage, approximately 12 hours apart. In other embodiments, the dosage composition may be provided once daily.
# CXCR4 = CXCR4 (Homo sapiens, UniProt P61073); conditions: SDF-1α dose/response in calcium flux with increasing X4P-001; cited from earlier work
# CXCR4, sequence (P61073 whole entry): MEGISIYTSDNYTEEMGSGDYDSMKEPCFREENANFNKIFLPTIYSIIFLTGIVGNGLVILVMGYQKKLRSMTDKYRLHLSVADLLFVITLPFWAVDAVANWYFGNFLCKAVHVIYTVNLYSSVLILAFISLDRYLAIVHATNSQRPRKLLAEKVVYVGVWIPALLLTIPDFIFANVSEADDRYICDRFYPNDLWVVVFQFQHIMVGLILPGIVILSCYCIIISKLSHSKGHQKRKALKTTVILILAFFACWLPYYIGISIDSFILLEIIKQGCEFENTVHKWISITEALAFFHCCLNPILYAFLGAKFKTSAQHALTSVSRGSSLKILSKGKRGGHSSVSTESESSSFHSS
# [6] = 400-mg single-dose subject (Stone, 2007); cited from earlier work
# [7] = cited from earlier work; for Bone pain incidence, as high as: Ferguson 2015 (filgrastim), Kirshner 2012 (pegfilgrastim)
# [8] = Table 9 comparison, 5 mg/kg s.c., @ - 60″ (1 h)
# [9] = females, 10 mg/kg/d, Day 28, p < 0.05
# [10] = females, 30 mg/kg/d, Day 28, p < 0.05
# [11] = females, 100 mg/kg/d, Day 28, p < 0.05
# [12] = males, 100 mg/kg/d, Day 28, p < 0.05
# [13] = Table 7 time course, 5 mg/kg s.c., @ - 2′ (2 h)
# [14] = Table 7 time course, 5 mg/kg s.c., @ - 6′ (6 h)
# [15] = Table 7 time course, 5 mg/kg s.c., @ - 15″ ([…])
# [16] = Table 7 time course, 5 mg/kg s.c., @ - 24′ (24 h)
# [17] = Table 7 time course, 5 mg/kg s.c., @ - 30″ (0.5 h)
# [18] = Table 7 time course, 5 mg/kg s.c., @ - 60″ (1 h)
# [19] = Table 8 dose response, 1 hour post-injection, 1.5 mg/kg
# [20] = Table 8 dose response, 1 hour post-injection, 5 mg/kg
# [21] = Table 8 dose response, 1 hour post-injection, 10 mg/kg
# [22] = Table 8 dose response, 1 hour post-injection, 20 mg/kg
# [23] = Table 9 comparison, 5 mg/kg s.c., @ - 2′ (2 h)
# [24] = Table 9 comparison, 5 mg/kg s.c., @ - 15″ ([…])
# [25] = Table 9 comparison, 5 mg/kg s.c., @ - 30″ (0.5 h)
molecule,measurement,setting,value
"c1cc(CN2CCCNCCNCCCNCC2)ccc1CN1CCCNCCNCCCNCC1 [AMD3100, plerixafor, reference compound]","BFU (BFU-E), Mean",[1]; [8],207.7 per mL of blood
same,"GEMM (CFU-GEMM), Mean",[1]; [8],138.5 per mL of blood
same,"GM (CFU-GM), Mean",[1]; [8],1950.3 per mL of blood
"NCCCCN(Cc1nc2ccccc2[nH]1)[C@H]1CCCc2cccnc21 [Mavorixafor, mavorixafor]",Time at which increases typically peaked,"[2]; 5, 15, 35 mg/kg oral",12 h
same,Other hematological effects,"[2]; single oral dose 5, 15, 35 mg/kg",No other hematological effects were observed
same,Hematology results after the 14-day recovery period,[3]; 100 mg/kg dose group,returned to within normal levels
same,"Lymphocytes (abs), increase","[3]; females, 10 mg/kg/d, Day 28",F incr 1.4×
same,"Monocytes (abs), increase",[3]; [9],F incr 1.6×†
same,"Neutrophils (abs), increase",[3]; [9],F incr 1.9×†
same,"Lymphocytes (abs), increase",[3]; [10],F incr 1.6×†
same,"Monocytes (abs), increase",[3]; [10],F incr 1.9×†
same,"Neutrophils (abs), increase",[3]; [10],F incr 2.3×†
same,"Lymphocytes (abs), increase",[3]; [11],F incr 1.4×†
same,"Monocytes (abs), increase",[3]; [11],F incr 2.4×†
same,"Neutrophils (abs), increase",[3]; [11],F incr 2.8×†
same,"Reticulocytes, decrease",[3]; [11],F decr 0.24†
same,"Lymphocytes (abs), increase","[3]; males, 10 mg/kg/d, Day 28",M incr 1.3×;
same,"Monocytes (abs), increase","[3]; males, 10 mg/kg/d, Day 28",M incr 1.2×;
same,"Neutrophils (abs), increase","[3]; males, 10 mg/kg/d, Day 28",M incr 1.2×;
same,"Lymphocytes (abs), increase","[3]; males, 30 mg/kg/d, Day 28",M incr 1.6×;
same,"Monocytes (abs), increase","[3]; males, 30 mg/kg/d, Day 28",M incr 1.3×;
same,"Neutrophils (abs), increase","[3]; males, 30 mg/kg/d, Day 28",M incr 1.2×;
same,"Neutrophils (abs), increase","[3]; males, 100 mg/kg/d, Day 28",M incr 1.8×;
same,"Lymphocytes (abs), increase",[3]; [12],M incr 2.3×†;
same,"Monocytes (abs), increase",[3]; [12],M incr 1.9×†;
same,"BFU (BFU-E), Mean",[1]; [13],165.3 per mL of blood
same,"GEMM (CFU-GEMM), Mean",[1]; [13],68.9 per mL of blood
same,"GM (CFU-GM), Mean",[1]; [13],897.5 per mL of blood
same,"BFU (BFU-E), Mean",[1]; [14],99.9 per mL of blood
same,"GEMM (CFU-GEMM), Mean",[1]; [14],37.6 per mL of blood
same,"GM (CFU-GM), Mean",[1]; [14],387.5 per mL of blood
same,"BFU (BFU-E), Mean",[1]; [15],148.8 per mL of blood
same,"GEMM (CFU-GEMM), Mean",[1]; [15],65.6 per mL of blood
same,"GM (CFU-GM), Mean",[1]; [15],785.1 per mL of blood
same,"BFU (BFU-E), Mean",[1]; [16],84.6 per mL of blood
same,"GEMM (CFU-GEMM), Mean",[1]; [16],37.7 per mL of blood
same,"GM (CFU-GM), Mean",[1]; [16],386.3 per mL of blood
same,"BFU (BFU-E), Mean",[1]; [17],230.4 per mL of blood
same,"GEMM (CFU-GEMM), Mean",[1]; [17],99.6 per mL of blood
same,"GM (CFU-GM), Mean",[1]; [17],1273.8 per mL of blood
same,"BFU (BFU-E), Mean",[1]; [18],235.1 per mL of blood
same,"GEMM (CFU-GEMM), Mean",[1]; [18],103.1 per mL of blood
same,"GM (CFU-GM), Mean",[1]; [18],866.0 per mL of blood
same,"BFU (BFU-E), Mean",[1]; [19],143.8 per mL of blood
same,"GEMM (CFU-GEMM), Mean",[1]; [19],53.3 per mL of blood
same,"GM (CFU-GM), Mean",[1]; [19],428.0 per mL of blood
same,"BFU (BFU-E), Mean",[1]; [20],181.6 per mL of blood
same,"GEMM (CFU-GEMM), Mean",[1]; [20],141.0 per mL of blood
same,"GM (CFU-GM), Mean",[1]; [20],1119.8 per mL of blood
same,"BFU (BFU-E), Mean",[1]; [21],268.1 per mL of blood
same,"GEMM (CFU-GEMM), Mean",[1]; [21],224.4 per mL of blood
same,"GM (CFU-GM), Mean",[1]; [21],1444.2 per mL of blood
same,"BFU (BFU-E), Mean",[1]; [22],261.4 per mL of blood
same,"GEMM (CFU-GEMM), Mean",[1]; [22],145.0 per mL of blood
same,"GM (CFU-GM), Mean",[1]; [22],1314.2 per mL of blood
same,"BFU (BFU-E), Mean",[1]; [23],108.5 per mL of blood
same,"GEMM (CFU-GEMM), Mean",[1]; [23],62.4 per mL of blood
same,"GM (CFU-GM), Mean",[1]; [23],619.6 per mL of blood
same,"BFU (BFU-E), Mean",[1]; [24],188.9 per mL of blood
same,"GEMM (CFU-GEMM), Mean",[1]; [24],93.8 per mL of blood
same,"GM (CFU-GM), Mean",[1]; [24],588.3 per mL of blood
same,"BFU (BFU-E), Mean",[1]; [25],151.9 per mL of blood
same,"GEMM (CFU-GEMM), Mean",[1]; [25],79.0 per mL of blood
same,"GM (CFU-GM), Mean",[1]; [25],705.9 per mL of blood
same,"BFU (BFU-E), Mean",[1]; [8],144.3 per mL of blood
same,"GEMM (CFU-GEMM), Mean",[1]; [8],102.2 per mL of blood
same,"GM (CFU-GM), Mean",[1]; [8],761.4 per mL of blood
same,Overall tolerability in clinical studies,[4],generally well tolerated
same,Terminal half-life,[5],approximately 14.5 hrs
same,Mode of CXCR4 inhibition,CXCR4,allosteric inhibitor
same,Increase in circulating white blood cells (leukocytosis) above baseline,[6],2.9 fold
B1,"Bone pain incidence, as high as",[7],66%
same,Bone pain incidence reported on label,[7]; label,24%
B2,"Bone pain incidence, as high as",[7],59%
same,Severe bone pain incidence,[7]; Kirshner et al. 2012,24%
